Test results reported in PubChem BioAssay (NCI).
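Five compound concentrations were applied to cells in 96-well plates for 48 hours; endpoints were derived by simple linear interpolation of the resulting dose-response curve. TGI marks complete inhibition of growth.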

How the values were obtained:
Assay in all cases: DTP human tumour cell line panel, 48 h
SK-MEL-5 melanoma = system: SK-MEL-5 melanoma
SNB-19 CNS = system: SNB-19 CNS
T-47D breast = system: T-47D breast
TK-10 renal = system: TK-10 renal
BT-549 breast = system: BT-549 breast
LOX IMVI melanoma = system: LOX IMVI melanoma
OVCAR-4 ovarian = system: OVCAR-4 ovarian
HCT-116 colon = system: HCT-116 colon
HOP-62 NSCLC = system: HOP-62 NSCLC
SK-OV-3 ovarian = system: SK-OV-3 ovarian

| Structure (SMILES) | TGI (SK-MEL-5 melanoma) | TGI (SNB-19 CNS) | TGI (T-47D breast) | TGI (TK-10 renal) | TGI (BT-549 breast) | TGI (LOX IMVI melanoma) | TGI (OVCAR-4 ovarian) | TGI (HCT-116 colon) | TGI (HOP-62 NSCLC) | TGI (SK-OV-3 ovarian) |
| --- | --- | --- | --- | --- | --- | --- | --- | --- | --- | --- |
| CN(C(=O)c1ccc(Cl)s1)C(=S)N(C)C(=O)c1ccc(Cl)s1 | > 10 µM | > 10 µM | > 10 µM | > 10 µM | > 10 µM | > 10 µM | > 10 µM | > 10 µM | > 10 µM | > 10 µM |
| Cc1cc(S(=O)(=O)Nc2nc(N)nc(N3N=CCC3C)n2)c(S)cc1Cl (stereo not given) | > 10 µM | > 10 µM | > 10 µM | > 10 µM | > 10 µM | > 10 µM | > 10 µM | > 10 µM | > 10 µM | > 10 µM |
| Cc1ccc2c(c1)OC1Nc3ccccc3C1=C2O (stereo not given) | 34 µM | > 100 µM | 85 µM | 78.3 µM | 66.1 µM | 71.5 µM | > 100 µM | 65.1 µM | > 100 µM | 64.3 µM |
| CCOC(=O)C1=C(C)NC(=S)NC1c1cccc(O)c1 (stereo not given) | > 100 µM | > 100 µM | > 100 µM | > 100 µM | > 100 µM | > 100 µM | > 100 µM | > 100 µM | > 100 µM | > 100 µM |
| O=C(/C=C/c1ccc([N+](=O)[O-])cc1)c1nc2ccccc2[nH]1 | > 100 µM | > 100 µM | > 84.8 µM | > 37.8 µM | > 100 µM | > 100 µM | > 100 µM | > 38.7 µM | > 100 µM | > 100 µM |
| CSCCC(NC(=O)OC(C)(C)C)C(=O)NCCNc1ccc(NCCNC(=O)C(CCSC)NC(=O)OC(C)(C)C)c2c1C(=O)c1ccccc1C2=O (stereo not given) | 13.2 µM | 16.6 µM | 12.1 µM | 15.1 µM | 9.59 µM | 22.8 µM | 24.8 µM | > 29.6 µM | 8.2 µM | 32.9 µM |
| CC[N+](C)(CC)CCN1C(=O)c2ccccc2S1(=O)=O | > 100 µM | > 100 µM | > 100 µM | > 100 µM | > 100 µM | > 100 µM | > 100 µM | > 100 µM | > 100 µM | > 100 µM |
| Cc1cc(S(=O)(=O)Nc2nnc3cc(C(F)(F)F)cc(C)n23)c(S)cc1Cl | > 100 µM | > 86.4 µM | > 100 µM | > 100 µM | > 100 µM | > 100 µM | > 100 µM | > 100 µM | > 100 µM | > 90.2 µM |
| CCCCN(c1ccccc1)c1ncnc2c1cnn2C | > 100 µM | > 100 µM | 99.1 µM | > 100 µM | 62.1 µM | > 100 µM | > 100 µM | > 100 µM | > 100 µM | > 100 µM |
| O=C1[C@@H]2Cc3c([nH]c4ccccc34)C(C3CCCCC3)N2C(=O)[C@@H]2CCCN12 (stereo not given in full) | 35.7 µM | > 100 µM | > 100 µM | > 100 µM | 88 µM | 73.9 µM | > 100 µM | 74.5 µM | > 100 µM | > 100 µM |
| CN1C2CC(=O)CC1[C@@H]1OC(c3ccccc3)O[C@H]21 (stereo not given in full) | > 100 µM | > 100 µM | > 100 µM | > 100 µM | > 100 µM | > 100 µM | > 100 µM | > 100 µM | > 100 µM | > 100 µM |
| O=C1C=CC(=O)c2ncccc21 | 18 µM | 19.1 µM | 5.18 µM | 17.4 µM | 15.5 µM | 6.32 µM | 11.4 µM | 4.27 µM | 28.6 µM | 37.2 µM |
